pEC50: −log10 of the molar value.
Tested on: HCV genotype 1b (Con1) replicon in HUH-7 cells
Test: HCV replicon luciferase reporter assay, genotype 1b
Type: cell-based
Conditions: Hepatitis C virus, 72 h, genotype 1b replicon, 3 days incubation, read-out: LE_1b (EC50, range)
Text: An HCV replicon whole cell system was established as described by Lohmann V, Korner F, Koch J, Herian U, Theilmann L, Bartenschlager R., Science 285(5424):110-3 (1999) and modified to introduce a luciferase reporter, as first described by Krieger et al (Krieger N, Lohmann V, and Bartenschlager R, J. Virol. 75(10):4614-4624 (2001)). CDNA encoding a humanized form of the Renilla luciferase gene and a linker sequence fused directly to the 3′-end of the luciferase gene were introduced into the replicon construct using an Asc1 restriction site located in core, directly upstream of the neomycin marker gene. The adaptive mutation at position 1179 (serine to isoleucine) was also introduced (Blight K J, Kolykhalov, A A, Rice, C M, Science 290(5498):1972-1974). A stable cell line constitutively expressing this HCV replicon construct was generated by first linearizing plasmid DNAs with ScaI. RNA transcripts were synthesized in vitro using the T7 MegaScript transcription kit (Ambion, Austin, Tex.) according to manufacturer's directions. In vitro transcripts of the cDNA were transfected into the human hepatoma cell line, HUH-7. […] Resulting cell lines were characterized for positive and negative strand RNA production and protein production over time. […]
HCV replicon luciferase assays were developed to monitor the inhibitory effects of compounds described in the disclosure on HCV genotypes 1a and 1b viral replication. HUH-7 cells, constitutively expressing the HCV replicon, were grown in Dulbecco's Modified Eagle Media (DMEM) (Gibco-BRL) containing 10% Fetal calf serum (FCS) (Sigma) and 1 mg/mL G418 (Gibco-BRL). Compounds were serially diluted 3 folds in DMSO for a twenty-point titration and subsequently transferred to sterile 384-well tissue-culture treated plates (Corning cat #3571). The plates were then seeded with 50 μL of cells at a density of 3.0×10^3 cells/well in DMEM containing 4% FCS (final DMSO concentration at 0.5%). After 3 days incubation at 37° C., cells were analyzed for Renilla Luciferase activity using the EnduRen as substrate (Promega cat #E6485). The EnduRen substrate was diluted in DMEM and then added to the plates to a final concentration of 7.5 μM. The plates were incubated for 2 hrs at 37° C. and then read immediately for 30 seconds with Viewlux Imager (PerkinElmer) using a luminescence program. To assess cytotoxicity of compounds, CC50 values were generated by multiplexing the EnduRen-containing plates with Cell Titer-Blue (Promega, cat # G8082). Cell-Titer Blue (3 μL) was added to each well and incubated for 8 hrs at 37° C. The fluorescence signal from each well was read, with an excitation wavelength at 525/10 nm and an emission wavelength of 598/10 nm, using the Viewlux Imager.
The EC50 values for compounds were calculated by using a four-parameter logistic equation: y=A+((B−A)/(1+((C/x)^D))), where A and B denotes minimal and maximal % inhibition, respectively, C is the EC50, D is the hill slope and x represents compound concentration.

Row | Structure (SMILES) | pEC50
1 | COC[C@@H]1C[C@@H](C)CC/C=C\[C@@H]2C[C@@]2(C(=O)NS(=O)(=O)C2(C)CC2)NC(=O)[C@@H]2C[C@@H](Oc3nc4cc(OC(C)C)ccc4nc3C(F)(F)F)CN2C(=O)[C@H]1NC(=O)OC(C)(C)C(C)(F)F [Compound 1055, 3,3-difluoro-2-methylbutan-2-yl ((2R,6S,7R,9S,13aS,14aR,16aS,Z)-2-((7-isopropoxy-3-(trifluoromethyl)quinoxalin-2-yl)oxy)-7-(methoxymethyl)-9-methyl-14a-(((1-methylcyclopropyl)sulfonyl)carbamoyl)-5,16-dioxo-1,2,3,5,6,7,8,9,10,11,13a,14,14a,15,16,16a-hexadecahydrocyclopropa[e]pyrrolo[1,2-a][1,4]diazacyclopentadecin-6-yl)carbamate] | 8.30 to 9.00
2 | CCOc1ccc2nc(C(F)(F)F)c(O[C@@H]3C[C@H]4C(=O)N[C@]5(C(=O)NS(=O)(=O)C6(C)CC6)C[C@H]5/C=C\CC[C@@H](C)C[C@@H](COC)[C@H](NC(=O)OC(C)(C)C(C)(F)F)C(=O)N4C3)nc2c1 [Compound 1052, 3,3-difluoro-2-methylbutan-2-yl ((2R,6S,7R,9R,13aS,14aR,16aS,Z)-2-((7-ethoxy-3-(trifluoromethyl)quinoxalin-2-yl)oxy)-7-(methoxymethyl)-9-methyl-14a-(((1-methylcyclopropyl)sulfonyl)carbamoyl)-5,16-dioxo-1,2,3,5,6,7,8,9,10,11,13a,14,14a,15,16,16a-hexadecahydrocyclopropa[e]pyrrolo[1,2-a][1,4]diazacyclopentadecin-6-yl)carbamate] | 9.30 to 10.00
3 | COC[C@@H]1C[C@@H](C)CC/C=C\[C@@H]2C[C@@]2(C(=O)NS(=O)(=O)C2(C)CC2)NC(=O)[C@@H]2C[C@@H](Oc3nc4cc(OC)c(F)cc4nc3C(F)(F)F)CN2C(=O)[C@H]1NC(=O)OC(C)(C)C(F)(F)F [Compound 1046, 1,1,1-trifluoro-2-methylpropan-2-yl ((2R,6S,7R,9S,13aS,14aR,16aS,Z)-2-((6-fluoro-7-methoxy-3-(trifluoromethyl)quinoxalin-2-yl)oxy)-7-(methoxymethyl)-9-methyl-14a-(((1-methylcyclopropyl)sulfonyl)carbamoyl)-5,16-dioxo-1,2,3,5,6,7,8,9,10,11,13a,14,14a,15,16,16a-hexadecahydrocyclopropa[e]pyrrolo[1,2-a][1,4]diazacyclopentadecin-6-yl)carbamate] | 8.30 to 9.00
4 | COC[C@@H]1C[C@@H](C)CC/C=C\[C@@H]2C[C@@]2(C(=O)NS(=O)(=O)C2(C)CC2)NC(=O)[C@@H]2C[C@@H](Oc3nc(OC)c4c(OC)cccc4n3)CN2C(=O)[C@H]1NC(=O)OC(C)(C)C(F)(F)F [Compound 1059, 1,1,1-trifluoro-2-methylpropan-2-yl ((2R,6S,7R,9S,13aS,14aR,16aS,Z)-2-((4,5-dimethoxyquinazolin-2-yl)oxy)-7-(methoxymethyl)-9-methyl-14a-(((1-methylcyclopropyl)sulfonyl)carbamoyl)-5,16-dioxo-1,2,3,5,6,7,8,9,10,11,13a,14,14a,15,16,16a-hexadecahydrocyclopropa[e]pyrrolo[1,2-a][1,4]diazacyclopentadecin-6-yl)carbamate] | 6.21 to 7.46
5 | COC[C@@H]1C[C@H](C)CC/C=C\[C@@H]2C[C@@]2(C(=O)NS(=O)(=O)C2(C)CC2)NC(=O)[C@@H]2C[C@@H](Oc3nc4cc(OC(C)C)ccc4nc3C(F)(F)F)CN2C(=O)[C@H]1NC(=O)OC(C)(C)C(F)(F)F [Compound 1058, 1,1,1-trifluoro-2-methylpropan-2-yl ((2R,6S,7R,9R,13aS,14aR,16aS,Z)-2-((7-isopropoxy-3-(trifluoromethyl)quinoxalin-2-yl)oxy)-7-(methoxymethyl)-9-methyl-14a-(((1-methylcyclopropyl)sulfonyl)carbamoyl)-5,16-dioxo-1,2,3,5,6,7,8,9,10,11,13a,14,14a,15,16,16a-hexadecahydrocyclopropa[e]pyrrolo[1,2-a][1,4]diazacyclopentadecin-6-yl)carbamate] | 9.30 to 10.00
6 | CCOc1cnc(O[C@@H]2C[C@H]3C(=O)N[C@]4(C(=O)NS(=O)(=O)C5(C)CC5)C[C@H]4/C=C\CC[C@@H](C)C[C@@H](COC)[C@H](NC(=O)OC(C)(C)C(F)(F)F)C(=O)N3C2)c2ccc(OC)cc12 [Compound 1066, 1,1,1-trifluoro-2-methylpropan-2-yl ((2R,6S,7R,9R,13aS,14aR,16aS,Z)-2-((4-ethoxy-6-methoxyisoquinolin-1-yl)oxy)-7-(methoxymethyl)-9-methyl-14a-(((1-methylcyclopropyl)sulfonyl)carbamoyl)-5,16-dioxo-1,2,3,5,6,7,8,9,10,11,13a,14,14a,15,16,16a-hexadecahydrocyclopropa[e]pyrrolo[1,2-a][1,4]diazacyclopentadecin-6-yl)carbamate] | 9.30 to 10.00
7 | COC[C@@H]1C[C@H](C)CC/C=C\[C@@H]2C[C@@]2(C(=O)NS(=O)(=O)C2(C)CC2)NC(=O)[C@@H]2C[C@@H](Oc3nc4cc(OC)c(F)cc4nc3C(F)(F)F)CN2C(=O)[C@H]1NC(=O)OC(C)(C)C [Compound 1047, tert-butyl ((2R,6S,7R,9R,13aS,14aR,16aS,Z)-2-((6-fluoro-7-methoxy-3-(trifluoromethyl)quinoxalin-2-yl)oxy)-7-(methoxymethyl)-9-methyl-14a-(((1-methylcyclopropyl)sulfonyl)carbamoyl)-5,16-dioxo-1,2,3,5,6,7,8,9,10,11,13a,14,14a,15,16,16a-hexadecahydrocyclopropa[e]pyrrolo[1,2-a][1,4]diazacyclopentadecin-6-yl)carbamate] | 9.00 to 9.29
8 | COC[C@@H]1C[C@H](C)CC/C=C\[C@@H]2C[C@@]2(C(=O)NS(=O)(=O)C2(C)CC2)NC(=O)[C@@H]2C[C@@H](Oc3nc(OC)c4c(OC)cccc4n3)CN2C(=O)[C@H]1NC(=O)OC(C)(C)C(F)(F)F [Compound 1060, 1,1,1-trifluoro-2-methylpropan-2-yl ((2R,6S,7R,9R,13aS,14aR,16aS,Z)-2-((4,5-dimethoxyquinazolin-2-yl)oxy)-7-(methoxymethyl)-9-methyl-14a-(((1-methylcyclopropyl)sulfonyl)carbamoyl)-5,16-dioxo-1,2,3,5,6,7,8,9,10,11,13a,14,14a,15,16,16a-hexadecahydrocyclopropa[e]pyrrolo[1,2-a][1,4]diazacyclopentadecin-6-yl)carbamate] | 8.30 to 9.00
9 | CCOc1ccc2nc(C(F)(F)F)c(O[C@@H]3C[C@H]4C(=O)N[C@]5(C(=O)NS(=O)(=O)C6(C)CC6)C[C@H]5/C=C\CC[C@H](C)C[C@@H](COC)[C@H](NC(=O)OC(C)(C)C)C(=O)N4C3)nc2c1 [Compound 1049, tert-butyl ((2R,6S,7R,9S,13aS,14aR,16aS,Z)-2-((7-ethoxy-3-(trifluoromethyl)quinoxalin-2-yl)oxy)-7-(methoxymethyl)-9-methyl-14a-(((1-methylcyclopropyl)sulfonyl)carbamoyl)-5,16-dioxo-1,2,3,5,6,7,8,9,10,11,13a,14,14a,15,16,16a-hexadecahydrocyclopropa[e]pyrrolo[1,2-a][1,4]diazacyclopentadecin-6-yl)carbamate] | 8.30 to 9.00
10 | COC[C@@H]1C[C@@H](C)CC/C=C\[C@@H]2C[C@@]2(C(=O)NS(=O)(=O)C2(C)CC2)NC(=O)[C@@H]2C[C@@H](Oc3nc4cc(OC)c(F)cc4nc3C(F)(F)F)CN2C(=O)[C@H]1NC(=O)OC(C)(C)C [Compound 1045, tert-butyl ((2R,6S,7R,9S,13aS,14aR,16aS,Z)-2-((6-fluoro-7-methoxy-3-(trifluoromethyl)quinoxalin-2-yl)oxy)-7-(methoxymethyl)-9-methyl-14a-(((1-methylcyclopropyl)sulfonyl)carbamoyl)-5,16-dioxo-1,2,3,5,6,7,8,9,10,11,13a,14,14a,15,16,16a-hexadecahydrocyclopropa[e]pyrrolo[1,2-a][1,4]diazacyclopentadecin-6-yl)carbamate] | 8.30 to 9.00

Source: patent US9580463B2 (BRISTOL-MYERS SQUIBB COMPANY, priority 2013, dated 2017)
